Experimental data from patent US20120015925A1, “NOVEL BENZOTHIAZEPINE AND BENZOTHIEPINE COMPOUNDS” (ASAHI KASEI PHARMA CORPORATION, priority 2004, published 2012).

Legend:
[1] = test system: rats fed cholesterol food; test: Blood cholesterol lowering effect in rats fed cholesterol food; format: in vivo, rat; conditions: oral, twice per day, SD (IGS) male rats, serum 3 hours after final administration
Method: In the present Test Example, a blood cholesterol lowering effect on rats fed cholesterol food was evaluated according to the method described in J. Lipid Res., 1995, 36, 1098-1105.
That is, the food containing 0.4% cholesterol and 0.5% bile acid was given to SD (IGS) strain male rats at 7 to 9 weeks of age for 5 days in advance of the test date, to increase blood cholesterol levels. The rats in which the blood cholesterol level had been obviously elevated from the level before loading the cholesterol food were selected as the subjects in the test. Colestimide (brand name: Cholebine 70% granules, supplied from Mitsubishi Tokyo Pharmaceutical Inc.) which is an anion exchange resin drug was suspended in distilled water, and the test compound was dissolved or suspended in distilled water. They were orally administered forcibly twice per day everyday from the starting date (each n=8). The blood was collected from jugular vein 3 hours after the drug administration on the final day of the experiment, and the cholesterol level in serum was measured to examine the effect of the test compound. As a control, another group (n=8) was merely fed cholesterol food, to which distilled water (1 mL/kg) was administered and the same procedure was applied. The total cholesterol value and the HDL cholesterol value were measured using commercially available kits. The value obtained by subtracting the HDL cholesterol value from the total cholesterol value was regarded as an LDL+VLDL cholesterol value.

[2] = test system: Wistar rats given choline-deficient food; test: Steatohepatitis model: AST and ALT in blood; format: in vivo, rat; conditions: 3 mg/kg oral once a day for 2 weeks, n = 4, average ± standard error; for AST: control group (n = 6) 180 ± 46; for ALT: control group (n = 6) 245 ± 57
Excerpt: In the present Test Example, a steatohepatitis model was employed with reference to the method of Okan A et al. (Dig. Dis. Sci., 47:2389-2397, 2002).
That is, choline-deficient food (supplied from Oriental Yeast Co., Ltd.) was given to Wistar rats at 7 weeks of age for two weeks to prepare a steatohepatitis model. The test compound was suspended in an aqueous solution of 0.5% methylcellulose (supplied from Wako Pure Chemical Industries), and the aqueous solution of 0.5% methylcellulose (supplied from Wako Pure Chemical Industries) was used as the control. They were orally administered once a day for consecutive 2 weeks. The blood was collected from the abdominal aorta on the day after the final drug administration. AST (GOT) and ALT (GPT) in the blood were measured using the measurement kits (GOT II-HA Test Wako and GPT II Test Wako, supplied from Wako Pure Chemical Industries) with an automatic analyzer (Nitech ANALAYZER SUPER Z818).

KKA^y/Ta Jcl male mice = test: Obesity and fatty liver model: body weight and liver triglyceride; format: in vivo, mouse; conditions: for BODY WEIGHT (g) BEFORE ADMINISTRATION: 1 mg/kg group, baseline; for BODY WEIGHT (g) TWO WEEKS / LIVER TRIGLYCERIDE / BODY WEIGHT (g) DIFFERENCE: 1 mg/kg once a day for 2 weeks
Method: In the present Test Example, an obesity and fatty liver model was employed with reference to the method described in WO02/09757.
That is, KKA^y/Ta Jcl male mice at 10 weeks of age were used as obese mice (N=4 to 7). The test compound was dissolved or suspended in the aqueous solution of 1% HCO 60 (supplied from Nippon Chemicals). The aqueous solution of 1% HCO 60 (supplied from Nippon Chemicals) was used as the control. The consecutive administration was performed once a day for 2 weeks, and body weight was measured daily and compared with the body weight on the day before the administration. On the day after the final administration, the liver was removed, and a triglyceride concentration in liver tissue was measured using a measurement kit (Triglyceride Test Wako, supplied from Wako Pure Chemical Industries). The results are shown in the following Table 14 (Tables 14-1 to 14-3).

Caco-2 cell = test: Gastrointestinal toxicity: cytotoxicity against Caco-2 cell (LDH activity); format: cell-based, human; conditions: 2 hours, LDH activity in medium relative to cell lysis agent = 100%
How it was run: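 Caco-2 cells were grown 48 h, then exposed to compound in medium for 2 h. LDH released into the medium was measured, and cytotoxicity was expressed as activity relative to lysis-agent-treated cells (100%).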

rats dosed cholic acid = test: Lowering effect on bile acid concentrations in portal vein blood in rats dosed cholic acid; format: in vivo, rat
How it was run: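 Fasted male SD (IGS) rats aged 7–9 weeks received oral cholic acid (200 mg/kg) plus test compound in water with 0.05% or 1% surfactant (n=6). Portal vein serum total bile acid measured 2 h post-dose; reduction rate (%) calculated against cholic acid-only controls set as 100%.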

[3] = Table 14-1, control group 42.8 ± 0.4
[4] = Table 14-1, control group 42.0 ± 0.7
[5] = Table 14-1, control group 94 ± 18
[6] = Table 14-1, control group −0.8 ± 0.5
[7] = 0.1 mg/kg oral with cholic acid 200 mg/kg, portal vein serum total bile acid 2 hours after, control = 100%, surfactant HCO-60 (##)
[8] = Table 14-2, control group 44.1 ± 0.6
[9] = Table 14-2, control group 0.7 ± 0.4
[10] = Table 14-2, control group 44.8 ± 0.9
[11] = Table 14-2, control group 103 ± 19

Row | SMILES | LDL + VLDL REDUCTION RATE (%) IN CHOLESTEROL FED RAT MODEL (THERAPEUTIC MODEL) ([1]; 0.3 mg/kg per administration) | AST [2] | ALT [2] | BODY WEIGHT (g) BEFORE ADMINISTRATION (KKA^y/Ta Jcl male mice; [3]) | BODY WEIGHT (g) TWO WEEKS (KKA^y/Ta Jcl male mice; [4]) | LIVER TRIGLYCERIDE (KKA^y/Ta Jcl male mice; [5]) | BODY WEIGHT (g) DIFFERENCE (KKA^y/Ta Jcl male mice; [6]) | CELL TOXICITY AGAINST Caco2 3 μM (Caco-2 cell) | CELL TOXICITY AGAINST Caco2 10 μM (Caco-2 cell) | CELL TOXICITY AGAINST Caco2 30 μM (Caco-2 cell) | BILE ACID REDUCTION RATE (%) IN RAT MODEL WITH CHOLIC ACID LOADING (rats dosed cholic acid; [7]) | BODY WEIGHT (g) BEFORE ADMINISTRATION (KKA^y/Ta Jcl male mice; [8]) | BODY WEIGHT (g) DIFFERENCE (KKA^y/Ta Jcl male mice; [9]) | BODY WEIGHT (g) TWO WEEKS (KKA^y/Ta Jcl male mice; [10]) | LIVER TRIGLYCERIDE (KKA^y/Ta Jcl male mice; [11]) | BILE ACID REDUCTION RATE (%) IN RAT MODEL WITH CHOLIC ACID LOADING (rats dosed cholic acid; 0.1 mg/kg oral, surfactant HCO-60 0.1%, cholic acid 200 mg/kg, portal vein blood 2 hours after administration) | LDL + VLDL REDUCTION RATE (%) IN CHOLESTEROL FED RAT MODEL (THERAPEUTIC MODEL) ([1]; 1 mg/kg per administration) | BILE ACID REDUCTION RATE (%) IN RAT MODEL WITH CHOLIC ACID LOADING (rats dosed cholic acid; 0.1 mg/kg oral, surfactant Tween 20 0.05%, cholic acid 200 mg/kg, portal vein blood 2 hours after administration)
1 | CCCCC1(CCCC)CS(=O)(=O)c2ccc(N(C)C)cc2C(c2cccc(NC(=S)Nc3ccc(C[N+]4(Cc5ccccc5)CCC(O)CC4)cc3)c2)N1.[Br-] (centres unmarked) [EXAMPLE 3605] | 28% | 80 ± 34 IU/L | 121 ± 36 IU/L | 42.9 ± 1.1 g | 41.4 ± 1.0 g | 65 ± 7 mg/g | -1.5 ± 0.4 g | <1% | <1% | <1% | 24% | – | – | – | – | – | – | –
2 | CCCCC1(CCCC)CS(=O)(=O)c2ccc(N(C)C)cc2C(c2cccc(NC(=S)Nc3ccc(C[N+]45CCC(c6ccccc6)(CC4)CC5)cc3)c2)N1.[Br-] (racemic) [EXAMPLE 3696] | 25% | 98 ± 23 IU/L | 145 ± 34 IU/L | – | – | – | – | <1% | <1% | <1% | 13% | 43.5 ± 1.3 g | -1.3 ± 0.3 g | 42.2 ± 2.2 g | 76 ± 12 mg/g | – | – | –
3 | CCCCC1(CCCC)CS(=O)(=O)c2ccc(N(C)C)cc2C(c2cccc(NC(=S)Nc3ccc(C[N+](C)(C)Cc4ccccc4)cc3)c2)N1.[Br-] (centres unmarked) [EXAMPLE 3440] | 36% | 125 ± 34 IU/L | 167 ± 93 IU/L | – | – | – | – | <1% | <1% | <1% | – | 44.6 ± 0.8 g | -0.7 ± 1.0 g | 43.9 ± 1.8 g | 88 ± 6 mg/g | 26% | – | –
4 | CCCCC1(CCCC)CS(=O)(=O)c2ccc(N(C)C)cc2C(c2cccc(NC(=S)Nc3ccc(C[n+]4cccc(CCCO)c4)cc3)c2)N1.[Br-] (centres unmarked) [EXAMPLE 3747] | 48% | 63 ± 86 IU/L | 102 ± 50 IU/L | – | – | – | – | <1% | <1% | <1% | 40% | 44.3 ± 0.8 g | -2.1 ± 1.0 g | 42.2 ± 1.8 g | 47 ± 23 mg/g | – | – | –
5 | CCCCC1(CCCC)CS(=O)(=O)c2ccc(N(C)C)cc2C(c2cccc(NC(=S)CCCCC[N+]34CCC(CC3)CC4)c2)N1.[Br-] (centres unmarked) [EXAMPLE 1, 1-{5-[3-(3,3-dibutyl-7-dimethylamino-1,1-dioxo-2,3,4,5-tetrahydro-1,4-benzothiazepine-5-yl)phenylthiocarbamoyl]pentyl}-1-azoniabicyclo[2.2.2]octane bromide] | 49% | – | – | 43.0 ± 0.5 g | 41.0 ± 0.6 g | 71 ± 13 mg/g | -1.9 ± 0.3 g | – | – | – | – | – | – | – | – | – | 68.4% | 51%
6 | CCCCC1(CCCC)CS(=O)(=O)c2ccc(N(C)C)cc2C(c2cccc(NC(=S)Nc3ccc(C[n+]4cccc(CCC(=O)OC)c4)cc3)c2)N1.[Br-] (centres unmarked) [EXAMPLE 3752] | 50% | 69 ± 98 IU/L | 88 ± 45 IU/L | – | – | – | – | <1% | <1% | <1% | 42% | 43.8 ± 1.2 g | -2.3 ± 0.9 g | 41.5 ± 1.0 g | 56 ± 23 mg/g | – | – | –
7 | CCCCC1(CCCC)CS(=O)(=O)c2ccc(N(C)C)cc2C(c2cccc(NC(=S)Nc3ccc(C[n+]4ccccc4CCC)cc3)c2)N1.[Br-] (centres unmarked) [EXAMPLE 5408] | 43% | 103 ± 45 IU/L | 149 ± 38 IU/L | – | – | – | – | <1% | <1% | <1% | 35% | 44.0 ± 0.9 g | -1.8 ± 0.5 g | 42.2 ± 1.6 g | 70 ± 11 mg/g | – | – | –
8 | C#CC[N+](C)(Cc1ccccc1)Cc1ccc(NC(=S)Nc2cccc(C3NC(CCCC)(CCCC)CS(=O)(=O)c4ccc(N(C)C)cc43)c2)cc1.[Br-] (racemic) [EXAMPLE 3448] | 20% | 134 ± 23 IU/L | 143 ± 79 IU/L | – | – | – | – | <1% | <1% | <1% | 25% | 44.1 ± 0.7 g | -2.0 ± 0.7 g | 42.1 ± 3.2 g | 74 ± 8 mg/g | – | – | –
9 | CCCCC1(CCCC)CS(=O)(=O)c2ccc(N(C)C)cc2C(c2cccc(NC(=S)Nc3ccc(C[n+]4ccc(C(C)(C)C)cc4)cc3)c2)N1.[Br-] (centres unmarked) [EXAMPLE 3713] | 41% | 77 ± 37 IU/L | 118 ± 36 IU/L | – | – | – | – | <1% | <1% | <1% | 32% | 44.0 ± 1.1 g | -2.5 ± 0.6 g | 41.5 ± 2.4 g | 59 ± 33 mg/g | – | – | –
